Source: patent EP3572468B1, “CYANINE DYES AND THEIR USAGE FOR IN VIVO STAINING OF MICROORGANISMS” (PHILIPPS-UNIVERSITÄT MARBURG, priority 2018, dated 2019)

Columns and labels:
[1] = system: double-stranded calf thymus DNA (dsDNACT); assay: Fluorescence titration with dsDNACT, binding affinity by DynaFit; conditions: 1 µM dye in 10 mM Tris pH 7.6 and 50 mM KCI, 20°C, emission at 647 nm, 1:1 binding model, read-out: binding affinity (KD, apparent dissociation constant)
Experimental: Fluorescence measurements and tritations were performed on a Jasco FP-6500 spectrofluorometer equipped with a Thermo Haake WKL 26 water recirculator at 20°C. Unless otherwise noted, a 1400 µL fluorescence cuvette of HellmaAnalytics (104F-QS) was used and the measurements were performed with the following settings: increment: 1.0 nm; integration time: 0.2 s; speed: 500 nm/min; sensitivity: medium; excitation slit width: 3 nm; emission slit width: 3 nm; excitation wavelength 610 nm. The emission spectra were recorded from 625 to 750 nm at 20°C. From all spectra, the corresponding background signal was substracted. […] Table 1: Binding sites and sequences of DNA hairpins, which were used for fluorescence titrations experiments.
All fluorescence titrations followed the same procedure: to 1 mL of 1 µM solution of corresponding cyanine dye derivative in 10 mM Tris pH 7.6 and 50 mM KCI aliquots of a stock solution of the corresponding annealed DNA (dsDNAhAT and dsDNAhGC = 435 µM; dsDNACT = 0.65 mM) were successively added and the fluorescence spectra were recorded in a range from 625-750 nm after 1 min of each addition. […] The fluorescence emission plotted is the resulting mean of the three independent measurements. […]
All binding affinities were determined by fitting the obtained experimental data in the DynaFit 4.0 software. […]

[2] = system: antibiotic-sensitive Klebsiella pneumoniae (K. pneumoniae); assay: Bacteria culture and staining: growth and FACS labeling of sensitive K. pneumoniae; assay type: cell-based; conditions: 2.5 µM dye
Experimental: (§1) Escherichia coli (E. coli) NEB5α (New England Biolabs) and antibiotic-resistant and -sensitive Klebsiella pneumoniae (K. pneumoniae) were cultured in Luria-Bertani (LB) solid medium (LB-Agar) overnight at 37°C. The source of the K. pneumoniae strands is of no relevance to the invention. The invention may be applied to all types of microorganisms (bacteria, viri, fungi etc.) or other cells, either contained within a sample or isolated from a sample. For staining, growth curve analysis and replating experiments bacteria were suspended in LB liquid medium at an OD600 nm of 1.0 and 800 µL were transferred into a culture tube containing 7.2 mL of LB liquid medium supplemented with DMSO or candidate dyes (2.5 µM) final concentration). Density of bacterial cultures was measured using an Ultrospec 10 Cell Density Meter with 600 nm LED source (Amersham Biosciences). […]
(§2) Bacteria and macrophages were washed with PBS prior to flow cytometry and analysed using a Guava easyCyte flow cytometer (Millipore). FCS3.0 files were analysed using Flowing Software (http://flowingsoftware.btk.fi/). Cells were first gated in the forward- / side-scatter plot to exclude debries, followed by quadrant gating in plots using the fluorescence channels as shown above. […] Propidium iodide signal was recorded in the yellow channel.

[3] = Molar extinction coefficient determination; assay type: physicochemical; conditions: in milli-Q water; absorbance maximum at 625 nm
Experimental: The concentration determination and measurement of full UV-Vis spectra were performed on a Tecan 20M at room temperature. The measurements were performed in a 1400 µL quarz cuvette with a pathlength of 1 cm in a volume of 1 mL.
For the accurate determination of our compounds 6-TramTO-3 the extinction coefficient was calculated. A specific amount (< 2.00 mg) of the compound was weighted on a Mettler Toledo XP6 and dissolved in a known amount of milli-Q water. Increasing amounts of such stock solution were added into a 1 mL cuvette filled with 1 ml of milli-Q water. The corresponding absorbance of each addition was measured on a Tecan Spark 20M at the maximum at 625 nm and without exceeding 10% of the initial volume. In all the cases the absorbance was between 0.1 and 1 AU. to be in concordance with Lambert-Beer law (equation E2). A = ε l c [formula]
In this equation (E2): A = absorbance of the solution; I = length of the cuvette; c = concentration; ε = molar extinction coefficient.
The lineal regression of the obtained absorbance measurements versus the concentrations of 6-TramTO-3 allowed us to obtain the molar extinction coefficient. These measurements were repeated three times independently i.e. from three different stock solutions. The mean extinction coefficient and the standard deviation of 6-TramTO-3 at a wavelength of 625 nm in milli-Q water was 59403 ±646 M^-1cm^-1.
The mean extinction coefficient and the standard deviation of 6-NH2TO-3 and 6-AzTO-3 were determined following the above described procedure. The extinction coefficient of 6-NH2TO-3 was determined in milli-Q water, whereas the extinction coefficient of 6-AzTO-3 was determined in DMSO due to its low aqueous solubility. […] For the spectrum of 6-AzTO-3 1% of DMSO was added for a better solubility. Fig. 20 and Fig. 21 show the linear regressions from the three independent measurements. Table 4 summarized the molar extinction coefficient obtained. Table 4: Determined mean extinction coefficients and standard deviations of 6-AzTO-3 in DMSO and 6-TramTO-3 and 6-NH2TO-3 in milli-Q water.

[4] = system: antibiotic-resistant Klebsiella pneumoniae (K. pneumoniae); assay type: cell-based; conditions: 2.5 µM dye
Experimental: as §1, §2

Structure (SMILES): CC[n+]1ccc(/C=C/C=C2\Sc3ccccc3N2CCCCCCn2cc(CN)nn2)c2ccccc21.[I-] [6-TramTO-3, 4-((1E,3Z)-3-(3-(6-(4-(aminomethyl)-1H-1,2,3-triazol-1-yl)hexyl)benzo[d]thiazol-2(3H)-ylidene)prop-1-en-1-yl)-1-ethylquinolin-1-ium iodide]
- Kd [1]: 19.5 ± 2.6 µM
- bacterial growth in presence of dye [2]: grew normally
- fluorescent labeling of live bacteria (FACS) ([2]; OD600 = 2.0): successfully fluorescently labeled
- mean extinction coefficient [3]: 59403 ± 646 M⁻¹ cm⁻¹
- bacterial growth in presence of dye [4]: grew normally
- fluorescent labeling of live bacteria (FACS) ([4]; OD600 = 2.0): successfully fluorescently labeled
